#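 Compound exposure: 48 hours, 5 concentrations, 96-well plates. GI50 = concentration required for 50% inhibition of growth.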 The source made the active and inactive calls. No stated cut-off is given here; in the data, active = GI50 up to about 1.1 µM and inactive = higher.
# Tests used:
# Experiment in all cases: NCI-60 cell line screen, 48 h
# 786-0 = system: 786-0
# A498 = system: A498
# A549 = system: A549
# ACHN = system: ACHN
# BT-549 = system: BT-549
# CAKI-1 = system: CAKI-1
# CCRF-CEM = system: CCRF-CEM
# COLO 205 = system: COLO 205
# DU-145 = system: DU-145
# EKVX = system: EKVX
# HCC 2998 = system: HCC 2998
# HCT-116 = system: HCT-116
# HCT-15 = system: HCT-15
# HL-60 = system: HL-60
# HOP-62 = system: HOP-62
# HOP-92 = system: HOP-92
# HT-29 = system: HT-29
# Hs-578T = system: Hs-578T
# IGROV-1 = system: IGROV-1
# K562 = system: K562
# KM12 = system: KM12
# LOX IMVI = system: LOX IMVI
# M14 = system: M14
# MCF7 = system: MCF7
# MDA-MB-231 = system: MDA-MB-231
# MDA-MB-435 = system: MDA-MB-435
# MOLT-4 = system: MOLT-4
# Malme-3M = system: Malme-3M
# NCI-H226 = system: NCI-H226
# NCI-H23 = system: NCI-H23
# NCI-H460 = system: NCI-H460
# NCI-H522 = system: NCI-H522
# NCI/ADR-RES = system: NCI/ADR-RES
# OVCAR-3 = system: OVCAR-3
# OVCAR-4 = system: OVCAR-4
# OVCAR-5 = system: OVCAR-5
# OVCAR-8 = system: OVCAR-8
# PC-3 = system: PC-3
# RPMI-8226 = system: RPMI-8226
# RXF 393 = system: RXF 393
# SF-268 = system: SF-268
# SF-295 = system: SF-295
# SF-539 = system: SF-539
# SK-MEL-28 = system: SK-MEL-28
# SK-MEL-2 = system: SK-MEL-2
# SK-MEL-5 = system: SK-MEL-5
# SK-OV-3 = system: SK-OV-3
# SN12C = system: SN12C
# SNB-19 = system: SNB-19
# SNB-75 = system: SNB-75
# SR = system: SR
# SW-620 = system: SW-620
# T47D = system: T47D
# TK-10 = system: TK-10
# U-251 = system: U-251
# UACC-257 = system: UACC-257
# UACC-62 = system: UACC-62
# UO-31 = system: UO-31
# MDA-N = system: MDA-N
structure (smiles),measurement,setting,value
O=C1CS/C(=N/N=C/c2cn(Cc3ccc(Cl)cc3Cl)c3ccccc23)N1,GI50,786-0,22.4 µM (inactive)
same,GI50,A498,19.9 µM (inactive)
same,GI50,A549,63 µM (inactive)
same,GI50,ACHN,53.7 µM (inactive)
same,GI50,BT-549,> 100 µM (inactive)
same,GI50,CAKI-1,39.1 µM (inactive)
same,GI50,CCRF-CEM,15.8 µM (inactive)
same,GI50,COLO 205,> 100 µM (inactive)
same,GI50,DU-145,53.6 µM (inactive)
same,GI50,EKVX,20.9 µM (inactive)
same,GI50,HCC 2998,32.2 µM (inactive)
same,GI50,HCT-116,44.6 µM (inactive)
same,GI50,HCT-15,37.3 µM
same,GI50,HL-60,> 100 µM (inactive)
same,GI50,HOP-62,27.6 µM (inactive)
same,GI50,HOP-92,28.2 µM (inactive)
same,GI50,HT-29,50.1 µM (inactive)
same,GI50,Hs-578T,25.8 µM (inactive)
same,GI50,IGROV-1,73.3 µM (inactive)
same,GI50,K562,38.8 µM (inactive)
same,GI50,KM12,54.3 µM (inactive)
same,GI50,LOX IMVI,25.2 µM (inactive)
same,GI50,M14,36.5 µM (inactive)
same,GI50,MCF7,18.5 µM (inactive)
same,GI50,MDA-MB-231,17 µM (inactive)
same,GI50,MDA-MB-435,25 µM (inactive)
same,GI50,MOLT-4,38.2 µM (inactive)
same,GI50,Malme-3M,76.4 µM (inactive)
same,GI50,NCI-H226,> 100 µM (inactive)
same,GI50,NCI-H23,58.3 µM (inactive)
same,GI50,NCI-H460,56.4 µM (inactive)
same,GI50,NCI-H522,44.9 µM (inactive)
same,GI50,NCI/ADR-RES,24.5 µM (inactive)
same,GI50,OVCAR-3,59 µM (inactive)
same,GI50,OVCAR-4,21.8 µM (inactive)
same,GI50,OVCAR-5,> 100 µM (inactive)
same,GI50,OVCAR-8,10.8 µM (inactive)
same,GI50,PC-3,19.6 µM (inactive)
same,GI50,RPMI-8226,52.1 µM (inactive)
same,GI50,RXF 393,24.9 µM (inactive)
same,GI50,SF-268,30.8 µM (inactive)
same,GI50,SF-295,64.4 µM (inactive)
same,GI50,SF-539,18.2 µM (inactive)
same,GI50,SK-MEL-28,50.4 µM (inactive)
same,GI50,SK-MEL-2,23.6 µM (inactive)
same,GI50,SK-MEL-5,35.6 µM (inactive)
same,GI50,SK-OV-3,> 100 µM (inactive)
same,GI50,SN12C,19.5 µM (inactive)
same,GI50,SNB-19,35.9 µM (inactive)
same,GI50,SNB-75,19.1 µM (inactive)
same,GI50,SR,14.1 µM (inactive)
same,GI50,SW-620,27.5 µM (inactive)
same,GI50,T47D,23.1 µM (inactive)
same,GI50,TK-10,> 100 µM (inactive)
same,GI50,U-251,17.3 µM (inactive)
same,GI50,UACC-257,67.8 µM (inactive)
same,GI50,UACC-62,91.2 µM (inactive)
same,GI50,UO-31,31.8 µM (inactive)
CC1=NN(c2nc(N)nc(CF)n2)C(C)(C)C1,GI50,786-0,> 100 µM (inactive)
same,GI50,A498,> 100 µM (inactive)
same,GI50,ACHN,> 100 µM (inactive)
same,GI50,BT-549,> 100 µM (inactive)
same,GI50,CAKI-1,> 100 µM (inactive)
same,GI50,CCRF-CEM,> 100 µM (inactive)
same,GI50,COLO 205,> 100 µM (inactive)
same,GI50,DU-145,> 100 µM (inactive)
same,GI50,EKVX,> 100 µM (inactive)
same,GI50,HCC 2998,> 100 µM (inactive)
same,GI50,HCT-116,> 100 µM (inactive)
same,GI50,HCT-15,> 100 µM
same,GI50,HL-60,> 100 µM (inactive)
same,GI50,HOP-62,> 100 µM (inactive)
same,GI50,HOP-92,> 100 µM (inactive)
same,GI50,HT-29,> 100 µM (inactive)
same,GI50,Hs-578T,> 100 µM (inactive)
same,GI50,IGROV-1,> 100 µM (inactive)
same,GI50,K562,49.3 µM (inactive)
same,GI50,KM12,> 100 µM (inactive)
same,GI50,LOX IMVI,> 100 µM (inactive)
same,GI50,M14,> 100 µM (inactive)
same,GI50,MCF7,> 100 µM (inactive)
same,GI50,MDA-MB-231,> 100 µM (inactive)
same,GI50,MDA-MB-435,> 100 µM (inactive)
same,GI50,MOLT-4,> 100 µM (inactive)
same,GI50,NCI-H226,> 100 µM (inactive)
same,GI50,NCI-H23,> 100 µM (inactive)
same,GI50,NCI-H460,> 100 µM (inactive)
same,GI50,NCI/ADR-RES,> 100 µM (inactive)
same,GI50,OVCAR-4,> 100 µM (inactive)
same,GI50,OVCAR-8,> 100 µM (inactive)
same,GI50,PC-3,> 100 µM (inactive)
same,GI50,RPMI-8226,> 100 µM (inactive)
same,GI50,RXF 393,> 100 µM (inactive)
same,GI50,SF-268,> 100 µM (inactive)
same,GI50,SF-295,> 100 µM (inactive)
same,GI50,SF-539,> 100 µM (inactive)
same,GI50,SK-MEL-28,> 100 µM (inactive)
same,GI50,SK-MEL-2,> 100 µM (inactive)
same,GI50,SK-MEL-5,> 100 µM (inactive)
same,GI50,SK-OV-3,> 100 µM (inactive)
same,GI50,SNB-19,> 100 µM (inactive)
same,GI50,SNB-75,> 100 µM (inactive)
same,GI50,SR,> 100 µM (inactive)
same,GI50,SW-620,> 100 µM (inactive)
same,GI50,T47D,> 100 µM (inactive)
same,GI50,TK-10,> 100 µM (inactive)
same,GI50,U-251,> 100 µM (inactive)
same,GI50,UACC-257,> 100 µM (inactive)
same,GI50,UACC-62,> 100 µM (inactive)
same,GI50,UO-31,> 100 µM (inactive)
C(=N/Nc1ccc(-c2nc3ccccc3[nH]2)cc1)/c1c(-c2ccccc2)[nH]c2ccccc12,GI50,786-0,0.465 µM (active)
same,GI50,A498,0.516 µM (active)
same,GI50,ACHN,0.575 µM (active)
same,GI50,CAKI-1,0.53 µM (active)
same,GI50,CCRF-CEM,0.443 µM (active)
same,GI50,DU-145,0.733 µM (active)
same,GI50,EKVX,3.16 µM (inactive)
same,GI50,HCC 2998,0.168 µM (active)
same,GI50,HCT-116,0.424 µM (active)
same,GI50,HCT-15,0.409 µM
same,GI50,HL-60,0.211 µM (active)
same,GI50,HOP-62,0.319 µM (active)
same,GI50,HOP-92,> 100 µM (inactive)
same,GI50,HT-29,0.222 µM (active)
same,GI50,Hs-578T,0.267 µM (active)
same,GI50,IGROV-1,0.728 µM (active)
same,GI50,K562,0.176 µM (active)
same,GI50,KM12,0.4 µM (active)
same,GI50,LOX IMVI,0.759 µM (active)
same,GI50,M14,0.215 µM (active)
same,GI50,MCF7,0.361 µM (active)
same,GI50,MDA-MB-231,0.475 µM (active)
same,GI50,MDA-MB-435,0.0471 µM (active)
same,GI50,MDA-N,0.0303 µM (active)
same,GI50,MOLT-4,0.658 µM (active)
same,GI50,NCI-H226,0.408 µM (active)
same,GI50,NCI-H23,0.973 µM (active)
same,GI50,NCI-H460,0.315 µM (active)
same,GI50,NCI-H522,0.34 µM (active)
same,GI50,NCI/ADR-RES,0.286 µM (active)
same,GI50,OVCAR-3,0.219 µM (active)
same,GI50,OVCAR-4,2.78 µM (inactive)
same,GI50,OVCAR-8,0.698 µM (active)
same,GI50,PC-3,0.311 µM (active)
same,GI50,RPMI-8226,0.268 µM (active)
same,GI50,RXF 393,1.6 µM (inactive)
same,GI50,SF-268,0.647 µM (active)
same,GI50,SF-295,0.294 µM (active)
same,GI50,SF-539,0.444 µM (active)
same,GI50,SK-MEL-28,0.638 µM (active)
same,GI50,SK-MEL-2,0.199 µM (active)
same,GI50,SK-MEL-5,0.311 µM (active)
same,GI50,SK-OV-3,0.32 µM (active)
same,GI50,SNB-75,0.703 µM (active)
same,GI50,SR,0.12 µM (active)
same,GI50,SW-620,0.317 µM (active)
same,GI50,T47D,28.8 µM (inactive)
same,GI50,TK-10,0.766 µM (active)
same,GI50,U-251,0.322 µM (active)
same,GI50,UACC-257,0.678 µM (active)
same,GI50,UO-31,0.405 µM (active)
CC[C@@]1(O)C(=O)OCc2c1cc1n(c2=O)Cc2c-1nc1ccccc1c2/C=N\c1ccc(N[C@@H]2c3cc4c(cc3[C@@H](c3cc(OC)c(O)c(OC)c3)[C@H]3C(=O)OC[C@@H]32)OCO4)cc1,GI50,786-0,< 0.0104 µM (active)
same,GI50,A549,0.038 µM (active)
same,GI50,ACHN,< 0.01 µM (active)
same,GI50,BT-549,0.11 µM (active)
same,GI50,DU-145,< 0.01 µM (active)
same,GI50,HCT-116,0.033 µM (active)
same,GI50,HOP-62,< 0.0136 µM (active)
same,GI50,K562,0.0585 µM (active)
same,GI50,M14,0.0194 µM (active)
same,GI50,MCF7,< 0.01 µM (active)
same,GI50,MOLT-4,< 0.01 µM (active)
same,GI50,NCI-H23,0.0198 µM (active)
same,GI50,NCI-H460,< 0.01 µM (active)
same,GI50,NCI-H522,0.0427 µM (active)
same,GI50,SF-268,< 0.0185 µM (active)
same,GI50,SK-MEL-5,0.0315 µM (active)
same,GI50,SNB-19,0.0446 µM (active)
same,GI50,SR,< 0.01 µM (active)
same,GI50,T47D,< 0.014 µM (active)
same,GI50,U-251,0.171 µM (active)
same,GI50,UACC-257,0.315 µM (active)
same,GI50,UO-31,0.0403 µM (active)

# From ChEMBL document CHEMBL1201862, “PubChem BioAssay data set” (2004)
